# Experimental data: US12644133B2, “Methods and compositions to increase somatic cell nuclear transfer (SCNT) efficiency by removing histone H3-lysine trimethylation” (The Children's Medical Center Corporation, priority 2014, dated 2026)
# Several values for one entry are separate records, joined by “and”; a condition that tells them apart may be missing. Equal entries are not always repeated.
# Key:
# SetDB1 H3K9me3 HMTase = conditions: cited from earlier work
# SCNT blastocysts = test: ntESC derivation from SCNT blastocysts; format: cell-based, mouse
# Procedure: Blastocysts were denuded by acid tyrode treatment and cultured on mitomycin treated MEF feeder cells and in DMEM supplemented with 5% FBS, 10% KnockOut serum replacement (Life Technologies #10828-028), 0.1 mM non-essential amino acids, 2 mM GlutaMAX, 50 U/ml penicillin-streptomycin, 0.1 mM 2-mercaptoethanol and 2000 U leukemia inhibitory factor (LIF, Millipore #ESG1107) at 37° C. 5% CO2. Four to five days later, outgrowths from attached embryos were dissociated with 0.25% trypsin and passaged all onto new feeder cells. On the following day, the medium was replaced with N2B27-LIF media [DMEM/F12 (Life Technologies #10565-042) supplemented with 0.1 mM non-essential amino acids, 2 mM GlutaMAX, 50 U/ml penicillin-streptomycin, 0.1 mM 2-mercaptoethanol, 0.5×N2 supplement (Life technologies #17502-048), 0.5× B27 supplement (Life technologies #17504-044), […] CHIR99021 (STEMGENT #04-0004), 0.5 μM PD0325901 (STEMGENT #04-0006) and 1000 U LIF]. Five days later, expanded cells were reseeded as established ntESC.
# SCNT embryos = test: Preimplantation development of SCNT embryos cultured in vitro; format: cell-based, mouse; conditions: cumulus donor cells (BDF1, female), TSA treatment 15 nM for 8 h, water or mRNA 1800 ng/μl injected
# Source text: C57BL/6J female mice were mated with DBA/2J males to produce B6D2F1/J (BDF1) mice. BDF1 and CD-1 (ICR) adult females were used for the collection of recipient oocytes and embryo transfer recipients, respectively. BDF1 mice were used for the collection of donor somatic cells for the analyses of development. (C57BL/6×CAST/EiJ) F1 mice were used for the collection of donor cells for RNA-seq. E13.5 embryos harboring GOF18 delta-PE (Jackson Laboratory, 004654: Tg(Pou5f1-EGFP)2Mnn, C57BL/6J background) were used for the isolation of mouse embryonic fibroblasts (MEF). All animal experiments were approved by the Institutional Animal Care and Use Committee of Harvard Medical School.
# Cumulus cells were collected from adult BDF1 females through superovulation by injecting 7.5 IU of pregnant mare serum gonadotropin (PMSG; Harbor) and 7.5 IU of human chorionic gonadotropin (hCG; Millipore). Fifteen hours after the hCG injection, cumulus-oocyte complexes (COCs) were collected from the oviducts and briefly treated with Hepes-buffered potassium simplex-optimized medium (KSOM) containing 300 U/ml bovine testicular hyaluronidase (Calbiochem #385931) to obtain dissociated cumulus cells. Sertoli cells were collected from testes of 3- to 5-day-old BDF1 male mice as described (Matoba et al., 2011). Testicular masses were incubated in PBS containing 0.1 mg/ml collagenase (Life Technologies #17104-019) for 30 min at 37° C. followed by 5 min treatment with 0.25% Trypsine with 1 mM EDTA (Life Technologies #25200-056) at room temperature. After washing for four times with PBS containing 3 mg/ml bovine serum albumin, the dissociated cells were suspended in Hepes-KSOM medium.
# Primary mouse embryonic fibroblast (MEF) cells were established from GOF18 delta-PE mouse embryos at 13.5 dpc. After removal of head and all organs, minced tissue from remaining corpus was dissociated in 500 μl of 0.25% Trypsine with 1 mM EDTA for 10 min at 37° C. Cell suspension was diluted with equal amount of DMEM (Life Technologies #11995-073) containing 10% FBS and Penicillin/Streptomycin (Life Technologies #15140-022) and pipetted up and down for 20 times. The cell suspension was diluted with fresh medium and plated onto 100 mm dishes and cultured at 37° C. Two days later, MEF cells were harvested and frozen. Frozen stocks of MEF cells were thawed and used for experiments after one passage.
# siRNAs against mouse Suv39h1 (Life Technologies #s74607), Suv39h2 (Life Technologies #s82300) and Setdb1 (Life Technologies #s96549) were diluted in nuclease free water at 50 μM stock solutions. siRNAs were introduced to MEFs with Lipofectamine RNAi Max (Life technologies #35050-061) following manufacturer's protocol. Briefly, 1×10^5 MEF cells were seeded onto 24-well plate (day 0; see FIG. 5A). Twenty-four hours later, […] siRNAs were transfected into MEF cells using Lipofectamine RNAi Max (day 1). Twenty-four hours after the first transfection, the culture media was changed to fresh M293T media [DMEM supplemented with 10% FBS, 0.1 mM non-essential amino acids (Life technologies #11140-050), 2 mM GlutaMAX (Life technologies #35050-079), 50 U/ml penicillin-streptomycin and 0.1 mM 2-mercaptoethanol (Life technologies #21985-023)] (day 2). On day 3, MEF cells were reseeded onto 24-well plates at the density of 1×10^5 cells. Then transfection was repeated once as described above (day 4). Forty-eight hours after the second transfection (day 6), MEF cells were used for immunostaining, RT-qPCR or SCNT.
# Somatic cell nuclear transfer was carried out as described previously (Matoba et al., 2011). Briefly, recipient MII oocytes were collected from superovulated adult BDF1 females by brief treatment with 300 U/ml bovine testicular hyaluronidase (Calbiochem). Isolated MII oocytes were enucleated in Hepes-buffered KSOM medium containing 7.5 μg/ml of cytochalasin B (Calbiochem #250233). […]
# Suv39h2 = Suv39h2 (Homo sapiens, UniProt Q9H5I1); conditions: cited from earlier work
# Suv39h2, sequence (Q9H5I1 whole entry, species assumed): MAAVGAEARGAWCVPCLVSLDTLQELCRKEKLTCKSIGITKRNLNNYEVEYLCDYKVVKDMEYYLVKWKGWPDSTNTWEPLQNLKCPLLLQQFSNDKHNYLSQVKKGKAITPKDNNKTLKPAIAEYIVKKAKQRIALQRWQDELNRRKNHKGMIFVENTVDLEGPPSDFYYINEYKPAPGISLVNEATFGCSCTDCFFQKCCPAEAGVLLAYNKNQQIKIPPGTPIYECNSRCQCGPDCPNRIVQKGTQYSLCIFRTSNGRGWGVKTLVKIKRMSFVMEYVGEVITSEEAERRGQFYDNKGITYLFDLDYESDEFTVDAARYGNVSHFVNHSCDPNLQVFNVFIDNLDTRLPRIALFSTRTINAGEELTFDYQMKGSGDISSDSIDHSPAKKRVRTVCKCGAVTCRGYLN
# [1] = cumulus donor cells (BDF1, female), TSA treatment 15 nM for 8 h, water or mRNA 1800 ng/μl injected
compound,measurement,setting,value
"Nc1nccc2c1ncn2[C@@H]1C=C(CO)[C@@H](O)[C@H]1O [DZNep, 3-Deazaneplanocin A]",levels of H3K27me3 and H3K9me3 (in words),SetDB1 H3K9me3 HMTase,reduced levels of both H3K27me3 and H3K9me3
"CC(/C=C/C(=O)NO)=C\[C@@H](C)C(=O)c1ccc(N(C)C)cc1 [TSA, trichostatin A, reference compound]","efficiency of attachment or ntESC derivation per blastocyst, compared to control (in words)",SCNT blastocysts; SCNT blastocysts from cumulus donor cells,did not show any significant difference
same,No. of blastocyst attached to feeder cells,SCNT blastocysts; [1],14
same,No. of established ntESC lines,SCNT blastocysts; [1],8
same,blastocyst attached to feeder cells (% per blast),SCNT blastocysts; [1],70.0%
same,established ntESC lines (% per MII oocyte),SCNT blastocysts; [1],(18.2) %
same,established ntESC lines (% per blast),SCNT blastocysts; [1],(40.0) %
same,% 4-cell per 2-cell ± SD,SCNT embryos,72.1 ± 10.9 %
same,% blast per 2-cell ± SD,SCNT embryos,53.8% and 53.8 ± 6.2 %
same,% cleaved per 1-cell ± SD,SCNT embryos,98.0 ± 3.4%
same,% morula per 2-cell ± SD,SCNT embryos,60.8 ± 6.8 %
same,No. of blastocyst,SCNT embryos; ntESC derivation experiment,20
same,blastocyst (% per 1-cell),SCNT embryos; ntESC derivation experiment,51.3%
"COc1cc2c(NC3CCN(C(C)C)CC3)nc(C3CCCCC3)nc2cc1OCCCN1CCCC1 [UNC0638, 2-Cyclohexyl-N-(1-isopropylpiperidin-4-yl)-6-methoxy-7-(3-(pyrrolidin-1-yl)propoxy)quinazolin-4-amine]",IC50,Suv39h2,> 10 µM
